From patent US12595248B2, “PRMT5 inhibitors” (Merck Sharp & Dohme LLC, priority 2019, dated 2026)
Where two headings read alike, the source gives them in different places.

Columns and labels:
[1] = biological target: T1, PRMT5-MEP50 enzyme complex (Homo sapiens, UniProt O14744); experiment: PRMT5-MEP50 Enzyme Methylation Assay (Version B); format: biochemical
T1 construct: Full-length (FL)-PRMT5-MEP50 enzyme complex (recombinant proteins from baculovirus-transfected Sf21 cells: FL-PRMT5; MW=73837 kDa and FL-MEP50; MW=38614); made in house; host or cells: baculovirus-transfected Sf21 cells
T1 sequence (O14744 whole entry): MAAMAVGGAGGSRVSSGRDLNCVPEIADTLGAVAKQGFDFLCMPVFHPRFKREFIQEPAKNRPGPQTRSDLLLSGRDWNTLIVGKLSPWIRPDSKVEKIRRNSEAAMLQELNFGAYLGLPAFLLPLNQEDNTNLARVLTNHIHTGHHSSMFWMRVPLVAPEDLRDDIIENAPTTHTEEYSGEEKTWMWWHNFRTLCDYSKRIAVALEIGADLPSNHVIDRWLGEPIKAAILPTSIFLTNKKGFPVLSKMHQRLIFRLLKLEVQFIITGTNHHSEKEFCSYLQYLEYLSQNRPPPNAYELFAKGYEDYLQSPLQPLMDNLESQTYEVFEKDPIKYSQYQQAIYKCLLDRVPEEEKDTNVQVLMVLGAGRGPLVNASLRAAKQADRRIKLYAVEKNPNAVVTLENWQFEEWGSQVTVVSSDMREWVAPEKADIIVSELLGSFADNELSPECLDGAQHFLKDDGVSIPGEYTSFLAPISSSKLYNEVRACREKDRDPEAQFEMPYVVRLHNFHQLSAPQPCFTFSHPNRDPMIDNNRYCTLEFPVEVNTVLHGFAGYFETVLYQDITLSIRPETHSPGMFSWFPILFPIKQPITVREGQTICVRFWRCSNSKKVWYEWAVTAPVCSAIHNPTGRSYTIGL
T1 sequence (Q9BQA1 whole entry partner): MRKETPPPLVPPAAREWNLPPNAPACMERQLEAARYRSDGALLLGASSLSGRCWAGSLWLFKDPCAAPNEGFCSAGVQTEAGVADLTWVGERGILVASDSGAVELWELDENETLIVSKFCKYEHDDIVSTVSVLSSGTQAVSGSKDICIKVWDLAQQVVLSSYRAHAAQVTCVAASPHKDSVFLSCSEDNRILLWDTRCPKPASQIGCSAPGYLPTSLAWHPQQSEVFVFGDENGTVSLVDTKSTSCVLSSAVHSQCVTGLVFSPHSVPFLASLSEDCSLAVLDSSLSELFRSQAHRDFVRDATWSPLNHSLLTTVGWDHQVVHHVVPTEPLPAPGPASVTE
Experimental: PRMT5-MEP50 Enzyme Methylation Assay (Version B)
PRMT5-MEP50 biochemical assay is a direct measurement of the methylation activity of the enzyme complex on a short peptide substrate derived from the N-terminus of H4 histone. Methylation experiment was performed with recombinant PRMT5-MEP50 protein complex. The assessment of inhibitory effect (EC50) of small molecules was measured by the effectiveness of the compounds to inhibit this reaction.
In this assay, the potency (EC50) of each compound was determined from a twenty-point (1:2 serial dilution; top compound concentration of 100000 nM) titration curve using the following outlined procedure. To each well of a white ProxiPlus 384 well-plate, 100 nL of compound (1% DMSO in final assay volume of 10 μL) was dispensed, followed by the addition of 8 μL of 1× assay buffer (50 mM Bicine pH 8.0, 1 mM DTT, 0.004% Tween20, 0.01% BSA) containing 0.625 nM of Full-length (FL)-PRMT5-MEP50 enzyme complex (recombinant proteins from baculovirus-transfected Sf21 cells: FL-PRMT5; MW=[…] and FL-MEP50; MW=38614). Plates were sealed and placed in a 37° C. humidified chamber for 30 minutes pre-incubation with compounds. Subsequently, each reaction was initiated by the addition of 2 μL 1× assay buffer containing 375 nM biotinylated H4R3 (MeI) peptide, and 75 μM S-(5′-Adenosyl)-L-Methionine Chloride (SAM). The final reaction in each well of 10 μL consists of 0.5 nM PRMT5-MEP50, 75 nM biotinylated-peptide, and 15 μM SAM. Methylation reactions were allowed to proceed for 150 minutes in a sealed plate at 37° C. Reactions were immediately quenched by the addition of 1 μL of 10% formic acid. Plates were then frozen and shipped to SAMDI™ Tech Inc. to determine the percent conversion from […]. Dose-response curves were generated by plotting percent effect (% product conversion; Y-axis) vs. Log 10 compound concentrations (X-axis). EC50 values were determined by non-linear regression according to models for either sigmoidal (4 parameters) or biphasic (7 parameters) dose-response curves.

[2] = biological target: T2, PRMT5 (Homo sapiens, UniProt O14744); experiment: PRMT5 Cell Target Engagement (TE) Assay; format: cell-based; conditions: MCF-7 cells, treated for 3 days, symmetric dimethylation of arginine (SDMA) by high content imaging
T2 construct: seeded with 4000 MCF-7 cells in 30 μl media; endogenous in cells; host or cells: MCF-7 cells
T2 sequence (O14744 whole entry): as the sequence (O14744 whole entry) above
T2 sequence (Q9BQA1 whole entry partner): as the sequence (Q9BQA1 whole entry partner) above
Description: PRMT5 Cell Target Engagement (TE) Assay
The PRMT5 TE assay is a biomarker assay for identifying compounds that inhibit symmetric dimethylation of arginine (SDMA) of PRMT5 substrates. The following substrates have been reported for PRMT5: histone H2A and H4 R3, Histone H3 R2, Histone H3 R8, spliceosome Sm proteins, ribosomal protein RPS10, p53, FEN1, nucleoplasmin, nucleolin, EGFR and EBNA. The assay focuses on detecting symmetrically dimethylated nuclear proteins using high content imaging technology. Detection of the expression of symmetrically dimethylated nuclear proteins is through a mixture of primary rabbit monoclonal antibodies to SDMA (CST 13222), which in turn recognized by an Alexafluor 488 dye-conjugated anti-rabbit IgG secondary antibody. The IN Cell Analyzer 2200 or Opera-Phenix measures nuclear Alexafluor 488 fluorescent dye intensity that is directly related to the level of expression of symmetrically dimethylated nuclear proteins at the single cell level. Nuclear AF488 dye intensities are compared to the mean value for DMSO treated cells (MIN) to report percent of inhibition for each compound-treated well.
In this assay, the cell potency (EC50) of each compound was determined from a ten point (1:3 serial dilution; top compound concentration of 10000 nM) titration curve using the following outlined procedure. Each well of a BD falcon collagen coated black/clear bottom 384-well plate was seeded with 4000 MCF-7 cells in 30 μl media and allowed to attach for 5 h. Media is ATCC-formulated Eagle's Minimum Essential Medium, Catalog No. 30-2003. To make the complete growth medium, the following components were added to the base medium: 0.01 mg/mL human recombinant insulin; fetal bovine serum to a final concentration of 10%. Additional 30 μl of media containing 2× compounds were added to each well. Cells were treated for 3 days in 37° C. CO2 incubator. On day 3, cells were fixed with Cytofix, permeabilized with 0.4% Triton-X-100/Cytofix, and washed with D-PBS without Ca/Mg. Cells were blocked with Licor Odessey blocking reagent for 1 h at room temperature, followed by incubation with anti-SDMA (1:1000) antibody at 4° C. overnight. 1° antibody was removed, followed by three washings with DPBS without Ca/Mg and 0.05% Tween20. Hoechst (5 μg/mL), Cell Mask deep stain (1:2000) and Alexa488-conjugated goat anti-rabbit IgG (2 μg/mL) was added for 1 h at room temperature. A final washing step (three washes) was performed before sealing plate for imaging on In Cell Analyzer 2200 or Opera-Phenix. Images from analyzer were uploaded to Columbus (at WP or BOS) for image analysis. IC50 values were determined by 4 parameters robust fit of percent fluorescence units vs. (Log10) compound concentrations.

[3] = only one EC50 shown: 4 parameters single site sigmoidal model, 30 min pre-incubation, read-out: Enzyme Methylation Assay Version B (EC50)
[4] = first of two EC50s: 7 parameters biphasic model, read-out: Enzyme Methylation Assay Version B (EC50_1)
[5] = second of two EC50s: 7 parameters biphasic model, read-out: Enzyme Methylation Assay Version B (EC50_2)

| SMILES | EC50 [1, 3] [nM] | EC50 [2] [nM] | EC50 [1, 4] [nM] | EC50 [1, 5] [nM] |
| --- | --- | --- | --- | --- |
| O=C(c1ccc(OCC(F)(F)F)nc1)N1CCC(N2Cc3ccccc3C(F)(F)C2)C(O)C1 (single isomer, unassigned) [Example 29, (-4-(4,4-difluoro-3,4-dihydroisoquinolin-2(1H)-yl)-3-hydroxypiperidin-1-yl)(6-(2,2,2-trifluoroethoxy)pyridin-3-yl)methanone] | 1340 | > 10000 | – | – |
| CC(=O)N1CCC(Nc2cc(C(=O)N3C[C@H]4C[C@@H]3C(O)C4N3CCc4ccccc4C3)c(F)cn2)CC1 (single isomer, unassigned) [Example 30] | 4830 | > 10000 | – | – |
| Cc1ccc2c(c1)CN(C1CCN(C(=O)c3ccc(OCC(F)(F)F)nc3)CC1O)CC2 (single isomer, unassigned) [Example 47, ((3R,4R or 3S,4S)-3-hydroxy-4-(7-methyl-3,4-dihydroisoquinolin-2(1H)-yl)piperidin-1-yl)(6-(2,2,2-trifluoroethoxy)pyridin-3-yl)methanone] | 1180 | > 10000 | – | – |
| Cc1ccc2c(c1)CN(C1CCN(C(=O)c3ccc(OCC(F)(F)F)nc3)CC1O)CC2 (single isomer, unassigned) [Example 48, ((3S,4S or 3R,4R)-3-hydroxy-4-(7-methyl-3,4-dihydroisoquinolin-2(1H)-yl)piperidin-1-yl)(6-(2,2,2-trifluoroethoxy)pyridin-3-yl)methanone] | 17800 | > 10000 | – | – |
| O=C(c1cn2c(n1)CCC(C(F)(F)F)C2)N1CC[C@H](N2CCc3ccccc3C2)[C@@H](O)C1 (single isomer, unassigned) [Example 83] | – | 365 | 12 | 9550 |
| CC(C)(C#N)c1ccc(C(=O)N2CC[C@H](N3CCc4ccccc4C3)[C@@H](O)C2)cn1 (single isomer, unassigned) [Example 89] | – | 3950 | ~110 | > 100000 |
| CC(C)(C#N)c1ccc(C(=O)N2CC[C@@H](N3CCc4ccccc4C3)[C@H](O)C2)cn1 (single isomer, unassigned) [Example 90] | 1540 | > 10000 | – | – |
| CC1OC(=O)Nc2cc(C(=O)N3CC[C@H](N4CCc5ccccc5C4)[C@@H](O)C3)ccc21 (single isomer, unassigned) [Example 91] | – | 7530 | 127 | 70800 |
| CC1OC(=O)Nc2cc(C(=O)N3CC[C@H](N4CCc5ccccc5C4)[C@@H](O)C3)ccc21 (single isomer, unassigned) [Example 94] | – | 4560 | ~291 | > 100000 |
| CC(=O)N1CCC(Nc2cc(C(=O)N3CC[C@@H](N4CCc5ccccc5C4)[C@H](O)C3)c(F)cn2)CC1 [Example 3, 1-(4-((4-((3R,4R)-4-(3,4-dihydroisoquinolin-2(1H)-yl)-3-hydroxypiperidine-l-carbonyl)-5-fluoropyridin-2-yl)amino)piperidin-l-yl)ethan-l-one] | – | 3090 | ~75 | 37600 |
| Cc1ccc2c(c1)CCN([C@H]1CCN(C(=O)c3ccc(OCC(F)(F)F)nc3)C[C@@H]1O)C2 [Example 4, ((3S,4S)-3-hydroxy-4-(6-methyl-3,4-dihydroisoquinolin-2(1H)-yl)piperidin-1-yl)(6-(2,2,2-trifluoroethoxy)pyridin-3-yl)methanone] | – | > 10000 | ~10 | 29200 |
| Cc1ccc2c(c1)CCN([C@@H]1CCN(C(=O)c3ccc(OCC(F)(F)F)nc3)C[C@H]1O)C2 [Example 5, ((3R,4R)-3-hydroxy-4-(6-methyl-3,4-dihydroisoquinolin-2(1H)-yl)piperidin-1-yl)(6-(2,2,2-trifluoroethoxy)pyridin-3-yl)methanone] | 1410 | > 10000 | – | – |
| O=C(c1ccn(CC(F)(F)F)c(=O)c1)N1CC[C@H](N2CCc3ccccc3C2)[C@@H](O)C1 [Example 31, 4-((3S,4S)-4-(3,4-dihydroisoquinolin-2(1H)-yl)-3-hydroxypiperidine-1-carbonyl)-1-(2,2,2-trifluoroethyl)pyridin-2(1H)-one] | – | 405 | ~30 | 34300 |
| O=C(c1ccn(CC(F)(F)F)c(=O)c1)N1CC[C@@H](N2CCc3ccccc3C2)[C@H](O)C1 [Example 32, 4-((3R,4R)-4-(3,4-dihydroisoquinolin-2(1H)-yl)-3-hydroxypiperidine-1-carbonyl)-1-(2,2,2-trifluoroethyl)pyridin-2(1H)-one] | 2160 | > 10000 | – | – |
| CCOc1cc(C(=O)N2C3CCC2COC3)ccc1C(=O)N1CC[C@H](N2CCc3ccccc3C2)[C@@H](O)C1 [Example 33] | – | 27 | 23 | 4650 |

Now from value to compound:

| EC50 [1, 3] [nM] | EC50 [2] [nM] | EC50 [1, 4] [nM] | EC50 [1, 5] [nM] | SMILES |
| --- | --- | --- | --- | --- |
| – | 100 | ~8 | 6170 | O=C(c1cn2c(n1)CCC(C(F)(F)F)C2)N1CC[C@H](N2CCc3ccccc3C2)[C@@H](O)C1 (single isomer, unassigned) [Example 82] |
| – | 4.4 | 5.3 | 3760 | CC(=O)N1CCC(Nc2cc(C(=O)N3CC[C@H](N4CCc5ccccc5C4)[C@@H](O)C3)c(F)cn2)C(F)(F)C1 (single isomer, unassigned) [Example 86] |
| – | 59 | 8.6 | 7240 | CC(=O)N1CCC(Nc2cc(C(=O)N3CC[C@H](N4CCc5ccccc5C4)[C@@H](O)C3)c(F)cn2)C(F)(F)C1 (single isomer, unassigned) [Example 87] |
| – | 32 | 4.4 | 2460 | CC1OC(=O)Nc2cc(C(=O)N3CC[C@@H](N4CCc5ccccc5C4)[C@H](O)C3)ccc21 (single isomer, unassigned) [Example 92] |
| – | 182 | ~18 | 11800 | CC1OC(=O)Nc2cc(C(=O)N3CC[C@@H](N4CCc5ccccc5C4)[C@H](O)C3)ccc21 (single isomer, unassigned) [Example 93] |
| – | 131 | 8.2 | 8710 | CC1OC(=O)Nc2cc(C(=O)N3CC[C@H](N4CCc5ccccc5C4)[C@@H](O)C3)c(F)cc21 (single isomer, unassigned) [Example 99] |
| – | 15 | 4.8 | 1720 | CC1OC(=O)Nc2cc(C(=O)N3CC[C@H](N4CCc5ccccc5C4)[C@@H](O)C3)c(F)cc21 (single isomer, unassigned) [Example 100] |
